Data set [1] addresses T1, Rv2671 (Mycobacterium tuberculosis, UniProt P71968). Description: X-ray cocrystal structure. The data set is classed as biochemical.
In data set [2] the test system is Nc1nc2c(c(=O)[nH]1)N=C(CNc1ccc(C(=O)N[C@@H](CCC(=O)O)C(=O)O)cc1)CN2. Description: purified protein.
Data set [3] concerns Nc1nc2c(c(=O)[nH]1)N=C(CNc1ccc(C(=O)O)cc1)CN2. Description: purified protein.
Data set [4] addresses T1, Rv2671. It is filed as biochemical.

Here are results for three compounds from publication PMC6201685 (Biochemistry, 2016).

The compound `COc1cc(NCc2ccc3nc(N)nc(N)c3c2C)cc(OC)c1OC` [TMQ, trimetrexate] returned a 50% inhibitory concentration (IC50) against Rv2671 [1] of 280 ± 20 nM. For the compound “Rv2671 (Mycobacterium tuberculosis H37Rv)”, the Km in data set [2] came out at 136 ± 32 µM; in data set [3], 180.2 ± 25.5 µM. In the case of `NC(=O)C1=CN([C@@H]2O[C@H](COP(=O)(O)OP(=O)(O)OC[C@H]3O[C@@H](n4cnc5c(N)ncnc54)[C@H](OP(=O)(O)O)[C@@H]3O)[C@@H](O)[C@H]2O)C=CC1` [NADPH], the “cosubstrate in DHF reduction assay with purified enzyme (340 nm, HPLC)” value on Rv2671 [4] is “Tetrahydrofolate, the product of the reaction, was observed by HPLC spectrometry after the addition of DHF and NADPH to Rv2671”.
